Converted amounts (≈) assume the structure as drawn.
What was measured:
wild-type E. coli = assay: Killing / inhibition of wild-type E. coli; type: cell-based, Escherichia coli
From the text: The compounds of the invention are observed to inhibit wild-type E. coli.

Klebsiella pneumonia = assay: MIC, microdilution in 96-well plates; details: Klebsiella pneumoniae
Streptococcus agalactiae = assay: MIC, 20-strain panel; type: cell-based; details: Table 7, separate set of experiments, read-out: MIC
Summary of the method: (§1)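 First, a 1:10000 inoculum of each strain was made in Luria-Bertani medium from a growing subculture. Next, the compound was added and diluted 2-fold down the plate in three replicate columns, with DMSO in a fourth. Finally, plates were shaken at 37° C. for 16-18 hours and scored visually.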

[1] = tested on: Salmonella enterica subsp. enterica typhimurium; assay: MIC, 20-strain panel; type: cell-based; details: Salmonella enterica subsp. enterica typhimurium, Table 7, separate set of experiments
Summary of the method: as §1

Bacillus cereus = assay: MIC, 20-strain panel; type: cell-based; details: Table 7, separate set of experiments, read-out: MIC
Summary of the method: as §1

[2] = tested on: Morganella morganii subsp. morganii; assay: MIC, 20-strain panel; type: cell-based; details: Morganella morganii subsp. morganii; Table 7, separate set of experiments; read-out: MIC
Summary of the method: as §1

[3] = tested on: Staphylococcus epidermidis; assay: MIC, 20-strain panel; type: cell-based; details: Table 7, separate set of experiments, read-out: MIC
Summary of the method: as §1

E. coli MG1655 = assay: MIC, 20-strain panel; type: cell-based; details: Escherichia coli, MG1655, E. coli MG1655; Table 7, separate set of experiments; read-out: MIC
Summary of the method: as §1

Enterococcus faecium = assay: MIC, 20-strain panel; type: cell-based; details: Table 7, separate set of experiments, read-out: MIC
Summary of the method: as §1

[4] = tested on: Staphylococcus saprophyticus subsp. saprophyticus; assay: MIC, 20-strain panel; type: cell-based; details: Staphylococcus saprophyticus subsp. saprophyticus, Table 7, separate set of experiments, read-out: MIC
Summary of the method: as §1

[5] = tested on: Klebsiella pneumoniae subsp. pneumoniae; assay: MIC, 20-strain panel; type: cell-based; details: Klebsiella pneumoniae subsp. pneumoniae, Table 7, separate set of experiments, read-out: MIC
Summary of the method: as §1

Bacillus subtilis 168 = assay: MIC, 20-strain panel; type: cell-based; details: Table 7, separate set of experiments, read-out: MIC
Summary of the method: as §1

[6] = tested on: E. coli BW25113 ΔtolC cipR isolate GyrA Asp87Tyr; assay: MIC against ciprofloxacin-resistant mutant; details: Escherichia coli, BW25113
Procedure: A microdilution method in 96-well plates was used and the MIC protocol established by the Clinical Laboratory Standards Institute was followed. From a growing subculture, a 1:10000 inoculum of each strain in Luria-Bertani media was prepared and aliquoted 100 μL in 4 columns of wells, except for the top row wells, which contained 200 μL of inoculum. […] The liquid in each of wells was mixed with a multi-channel pipet and 100 μL was transferred to the next well and mixed. The 2-fold dilution was continued down the 96-well plate until 100 μL was left, which was discarded. The plates were incubated at 37° C. with shaking for 16-18 hours. The MIC was determined as the lowest concentration that inhibited growth and had no turbidity by visual inspection.

E. coli BW25113 ΔtolC = assay: MIC, microdilution in 96-well plates; details: Escherichia coli

For `N#Cc1cccc(S(=O)(=O)N[C@@H]2CCN(Cc3ccc(-c4ccccc4)cc3)C2)c1` [Gyramide C2, gyramide C2], the “concentration observed to kill wild-type E. coli” value (wild-type E. coli) was 20 µM, the MIC (Klebsiella pneumonia; with PAβN (60 μM)) was 20 µM (≈ 8.35 µg/mL) and the MIC (Klebsiella pneumonia; without PAβN) was greater than 640 µM. For the same compound, the MIC (Streptococcus agalactiae) was greater than 16 µg/mL, the MIC [1] was 2 µg/mL (≈ 4.79 µM) and the MIC (Bacillus cereus) was greater than 16 µg/mL. For the same compound, the MIC [2] was greater than 16 µg/mL, the MIC [3] was greater than 16 µg/mL and the MIC (E. coli MG1655) was 16 µg/mL (≈ 38.3 µM). The MIC (Enterococcus faecium) was greater than 16 µg/mL, the MIC [4] was greater than 16 µg/mL and the MIC [5] was greater than 16 µg/mL. It also gave an MIC (Bacillus subtilis 168) greater than 16 µg/mL, an MIC [6] of 0.8 µM (≈ 0.334 µg/mL) and an MIC (E. coli BW25113 ΔtolC; BW25113, E. coli BW25113 ΔtolC (parent strain), Table 4) of 0.1 µM (≈ 0.0418 µg/mL). The MIC (E. coli BW25113 ΔtolC; BW25113, E. coli BW25113 ΔtolC (parent strain), Table 5) was 0.1 µM (≈ 0.0418 µg/mL) and the MIC (E. coli BW25113 ΔtolC; BW25113, E. coli BW25113 ΔtolC, without PAβN, Table 3) was 0.25 µM (≈ 0.104 µg/mL).
